# According to patent US20230062119A1, “USE OF BIOMARKERS IN IDENTIFYING PATIENTS THAT WILL BE RESPONSIVE TO TREATMENT WITH A PRMT5 INHIBITOR” (Merck Sharp & Dohme LLC, priority 2019, published 2023):
# pEC50: −log10 of the molar value. Read-outs that look alike come from different tables or passages of the source.
# Molecular target: T1, Full-length (FL)-PRMT5-MEP50 enzyme complex (Homo sapiens, UniProt O14744)
# T1 construct: Full-length (FL)-PRMT5-MEP50 enzyme complex (recombinant proteins from baculovirus-transfected Sf21 cells: FL-PRMT5; MW=73837 kDa and FL-MEP50; MW=38614); made in house; host or cells: baculovirus-transfected Sf21 insect cells
# Test: PRMT5-MEP50 Enzyme Methylation Assay
# Type: biochemical
# Conditions: 1.0 nM PRMT5-MEP50, 75 nM biotinylated peptide, 15 μM SAM
# Description: PRMT5-MEP50 biochemical assay is a direct measurement of the methylation activity of the enzyme complex on a short peptide substrate derived from the N-terminus of H4 histone. Methylation experiment is performed with recombinant PRMT5-MEP50 protein complex. The assessment of inhibitory effect of small molecules is measured by the effectiveness of the compounds to inhibit this reaction (EC50).
# In this assay, the potency (EC50) of each compound was determined from a twenty-point (1:2 serial dilution; top compound concentration of 100000 nM) titration curve using the following outlined procedure. To each well of a white ProxiPlus 384 well-plate, 100 nL of compound (1% DMSO in final assay volume of 10 μL) was dispensed, followed by the addition of 8 μL of 1× assay buffer (50 mM Bicine pH 8.0, 1 mM DTT, 0.004% Tween20, 0.01% BSA) containing 1.25 nM of Full-length (FL)-PRMT5-MEP50 enzyme complex (recombinant proteins from baculovirus-transfected Sf21 cells: FL-PRMT5; MW=[…] and FL-MEP50; MW=38614) and 1 μL of 150 μM S-(5′-Adenosyl)-L-Methionine Chloride (SAM). Plates were sealed and placed in a 37° C. humidified chamber for a 60 minutes pre-incubation with compound. Subsequently, each reaction was initiated by the addition of 1 μL 1× assay buffer containing 750 nM biotinylated H4R3(Mel) peptide. The final reaction in each well of 10 μL consists of 1.0 nM PRMT5-MEP50, 75 nM biotinylated-peptide, and 15 μM SAM. Methylation reactions proceeded for 150 minutes in a sealed plate at 37° C. Reactions were immediately quenched by the addition of 1 μL of 5% formic acid. Plates were then frozen and shipped to SAMDI™ Tech Inc. to determine the percent conversion from H4R3(Mel) to H4R3(Me2). Dose-response curves were generated by plotting percent effect (% product conversion; Y-axis) vs. Log 10 compound concentrations (X-axis). EC50 values were determined by non-linear regression according to models for either sigmoidal (4 parameters) or biphasic (7 parameters) dose-response curves.
# [1] = one EC50: 4 parameters single site sigmoidal model, EC50 1: first value of 7 parameters biphasic model, read-out: Enzyme Methylation Assay (EC50 or EC50 1)
# [2] = second EC50 of 7 parameters biphasic model, read-out: Enzyme Methylation Assay (EC50 2)
# T1 sequence (O14744 whole entry): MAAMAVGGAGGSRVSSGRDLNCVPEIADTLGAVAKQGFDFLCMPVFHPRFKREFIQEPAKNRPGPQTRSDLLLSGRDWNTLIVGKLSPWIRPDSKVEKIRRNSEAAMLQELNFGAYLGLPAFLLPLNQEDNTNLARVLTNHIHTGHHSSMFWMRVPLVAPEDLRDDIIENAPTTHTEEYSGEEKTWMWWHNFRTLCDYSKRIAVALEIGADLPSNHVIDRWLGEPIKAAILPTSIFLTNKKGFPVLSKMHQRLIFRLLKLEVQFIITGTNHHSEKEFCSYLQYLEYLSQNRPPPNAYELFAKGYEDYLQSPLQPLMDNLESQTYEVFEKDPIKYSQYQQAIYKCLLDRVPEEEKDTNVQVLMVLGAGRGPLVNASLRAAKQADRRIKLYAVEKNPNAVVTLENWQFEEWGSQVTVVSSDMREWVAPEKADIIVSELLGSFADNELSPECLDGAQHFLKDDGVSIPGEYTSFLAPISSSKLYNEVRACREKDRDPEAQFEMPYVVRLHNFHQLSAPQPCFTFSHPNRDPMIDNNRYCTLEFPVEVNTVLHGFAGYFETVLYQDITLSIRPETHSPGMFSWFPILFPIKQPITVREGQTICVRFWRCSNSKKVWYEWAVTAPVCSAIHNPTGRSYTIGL
# T1 sequence (Q9BQA1 whole entry partner): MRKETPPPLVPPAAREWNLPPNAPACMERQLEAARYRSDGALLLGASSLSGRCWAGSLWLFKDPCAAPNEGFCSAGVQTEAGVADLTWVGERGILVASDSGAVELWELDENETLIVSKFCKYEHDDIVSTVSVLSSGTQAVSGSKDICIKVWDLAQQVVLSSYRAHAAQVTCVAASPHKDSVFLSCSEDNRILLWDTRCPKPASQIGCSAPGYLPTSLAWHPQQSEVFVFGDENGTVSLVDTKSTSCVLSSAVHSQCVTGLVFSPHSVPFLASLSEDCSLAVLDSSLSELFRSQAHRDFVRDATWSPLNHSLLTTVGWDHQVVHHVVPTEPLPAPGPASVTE
Compound,pEC50 [1],pEC50 [2]
"Nc1nc2cc(C[C@@H]3CC[C@@]4(O)[C@@H]3C[C@@H](n3ccc5c(N)ncnc53)[C@@H]4O)ccc2cc1Br [Example 41, (1S,2R,3aR,4S,6aR)-4-((2-amino-3-bromoquinolin-7-yl)methyl)-2-(4-amino-7H-pyrrolo[2,3-d]pyrimidin-7-yl)hexahydropentalene-1,6a(1H)-diol 2,2,2-trifluoroacetate]",9.15,
"Nc1nc2cc(C[C@@H]3CC[C@@]4(O)[C@@H]3C[C@@H](n3cc(F)c5c(N)ncnc53)[C@@H]4O)ccc2cc1Br [Example 42, (1S,2R,3aR,4S,6aR)-4-((2-amino-3-bromoquinolin-7-yl)methyl)-2-(4-amino-5-fluoro-7H-pyrrolo[2,3-d]pyrimidin-7-yl)hexahydropentalene-1,6a(1H)-diol]",9.52,
"Nc1nc2cc(C[C@@H]3CC[C@@]4(O)[C@@H]3O[C@@H](n3cc(C(F)F)c5c(N)ncnc53)[C@@H]4O)ccc2cc1Br [Example 43, (2R,3R,3aS,6S,6aR)-6-[(2-amino-3-bromoquinolin-7-yl)methyl]-2-[4-amino-5-(difluoromethyl)-7H-pyrrolo[2,3-d]pyrimidin-7-yl]hexahydro-3aH-cyclopenta[b]furan-3,3a-diol]",9.40,
"Cc1nc(N)c2c(F)cn([C@@H]3O[C@@H]4[C@H](Cc5ccc6cc(F)c(N)nc6c5)CC[C@]4(O)[C@H]3O)c2n1 [Example 44, (2R,3R,3aS,6S,6aR)-6-((2-amino-3-fluoroquinolin-7-yl)methyl)-2-(4-amino-5-fluoro-2-methyl-7H-pyrrolo[2,3-d]pyrimidin-7-yl)hexahydro-3aH-cyclopenta[b]furan-3,3a-diol 2,2,2-trifluoroacetate]",9.40,
"Nc1nc2cc(C[C@@H]3CC[C@@]4(O)[C@@H]3O[C@@H](n3ccc5c(N)nc(Cl)nc53)[C@@H]4O)ccc2cc1Cl [Example 47, (2R,3R,3aS,6S,6aR)-2-(4-amino-2-chloro-7H-pyrrolo[2,3-d]pyrimidin-7-yl)-6-[(2-amino-3-chloroquinolin-7-yl)methyl]hexahydro-3aH-cyclopenta[b]furan-3,3a-diol]",9.70,
"Nc1nc2cc(O[C@H]3CC[C@@]4(O)[C@@H]3O[C@@H](n3cc(-c5ccccc5)c5c(N)ncnc53)[C@@H]4O)ccc2cc1Br [Example 49, (2R,3R,3aS,6S,6aR)-6-[(2-amino-3-bromoquinolin-7-yl)oxy]-2-(4-amino-5-phenyl-7H-pyrrolo[2,3-d]pyrimidin-7-yl)hexahydro-3aH-cyclopenta[b]furan-3,3a-diol]",9.30,
"Nc1nc2cc(O[C@H]3CC[C@@]4(O)[C@@H]3O[C@@H](n3cc(C5CC5)c5c(N)ncnc53)[C@@H]4O)ccc2cc1Br [Example 52, (2R,3R,3aS,6S,6aR)-6-[(2-amino-3-bromoquinolin-7-yl)oxy]-2-(4-amino-5-cyclopropyl-7H-pyrrolo[2,3-d]pyrimidin-7-yl)hexahydro-3aH-cyclopenta[b]furan-3,3a-diol]",9.30,
"Nc1nc2cc(O[C@H]3CC[C@@]4(O)[C@@H]3O[C@@H](n3cc(F)c5c(N)ncnc53)[C@@H]4O)ccc2cc1Br [Example 56, (2R,3R,3aS,6S,6aR)-6-((2-amino-3-bromoquinolin-7-yl)oxy)-2-(4-amino-5-fluoro-7H-pyrrolo[2,3-d]pyrimidin-7-yl)hexahydro-3aH-cyclopenta[b]furan-3,3a-diol]",9.70,
"Nc1ncnc2c1ccn2[C@@H]1O[C@@H]2[C@@H](Oc3ccc4ccc(NCC(F)(F)F)nc4c3)CC[C@]2(O)[C@H]1O [Example 57, (2R,3R,3aS,6S,6aR)-2-(4-amino-7H-pyrrolo[2,3-d]pyrimidin-7-yl)-6-((2-((2,2,2-trifluoroethyl)amino)quinolin-7-yl)oxy)hexahydro-3aH-cyclopenta[b]furan-3,3a-diol]",9.15,6.84
"Nc1ncnc2c1ccn2[C@@H]1O[C@@H]2[C@@H](Oc3ccc4ccc(NCC5CC5)nc4c3)CC[C@]2(O)[C@H]1O [Example 58, (2R,3R,3aS,6S,6aR)-2-(4-amino-7H-pyrrolo[2,3-d]pyrimidin-7-yl)-6-((2-((cyclopropylmethyl)amino)quinolin-7-yl)oxy)hexahydro-3aH-cyclopenta[b]furan-3,3a-diol]",9.40,
"Cc1cn([C@@H]2O[C@@H]3[C@@H](Oc4ccc5cc(Br)c(N)nc5c4)CC[C@]3(O)[C@H]2O)c2ncnc(N)c12 [Example 60, (2R,3R,3aS,6S,6aR)-6-((2-amino-3-bromoquinolin-7-yl)oxy)-2-(4-amino-5-methyl-7H-pyrrolo[2,3-d]pyrimidin-7-yl)hexahydro-3aH-cyclopenta[b]furan-3,3a-diol]",9.40,

# The next lines start with the values.
pEC50 [1],pEC50 [2],Compound
9.52,,"Nc1nc2cc(C[C@@H]3CC[C@@]4(O)[C@@H]3O[C@@H](n3ccc5c(N)nc(F)nc53)[C@@H]4O)ccc2cc1F [Example 45, (2R,3R,3aS,6S,6aR)-2-(4-amino-2-fluoro-7H-pyrrolo[2,3-d]pyrimidin-7-yl)-6-((2-amino-3-fluoroquinolin-7-yl)methyl)hexahydro-3aH-cyclopenta[b]furan-3,3a-diol]"
9.30,,"Nc1nc2cc(C[C@@H]3CC[C@@]4(O)[C@@H]3O[C@@H](n3ccc5c(N)nc(Cl)nc53)[C@@H]4O)ccc2cc1F [Example 48, (2R,3R,3aS,6S,6aR)-2-(4-amino-2-chloro-7H-pyrrolo[2,3-d]pyrimidin-7-yl)-6-[(2-amino-3-fluoroquinolin-7-yl)methyl]hexahydro-3aH-cyclopenta[b]furan-3,3a-diol]"
8.92,,"Nc1nc2cc(C[C@@H]3CC[C@@]4(O)[C@@H]3O[C@@H](n3cc(C(F)F)c5c(N)ncnc53)[C@@H]4O)ccc2cc1F [Example 51, (2R,3R,3aS,6S,6aR)-2-[4-amino-5-(difluoromethyl)-7H-pyrrolo[2,3-d]pyrimidin-7-yl]-6-[(2-amino-3-fluoroquinolin-7-yl)methyl]hexahydro-3aH-cyclopenta[b]furan-3,3a-diol]"
9.52,,"Nc1nc2cc(C[C@H]3[C@H]4O[C@@H](n5ccc6c(N)ncnc65)[C@H](O)[C@@]4(O)CC3(F)F)ccc2cc1F [Example 53, (2R,3R,3aS,6S,6aR)-6-[(2-amino-3-fluoroquinolin-7-yl)methyl]-2-(4-amino-7H-pyrrolo[2,3-d]pyrimidin-7-yl)-5,5-difluorohexahydro-3aH-cyclopenta[b]furan-3,3a-diol]"
9.52,,"Nc1nc2cc(C[C@H]3[C@H]4O[C@@H](n5ccc6c(N)ncnc65)[C@H](O)[C@@]4(O)C[C@@H]3F)ccc2cc1F [Example 54, (2R,3R,3aS,5S,6S,6aR)-6-[(2-amino-3-fluoroquinolin-7-yl)methyl]-2-(4-amino-7H-pyrrolo[2,3-d]pyrimidin-7-yl)-5-fluorohexahydro-3aH-cyclopenta[b]furan-3,3a-diol]"
9.30,6.72,"Nc1nc2cc(C[C@H]3[C@H]4O[C@@H](n5cc(F)c6c(N)ncnc65)[C@H](O)[C@@]4(O)C[C@@H]3F)ccc2cc1F [Example 55, (2R,3R,3aS,5S,6S,6aR)-2-(4-amino-5-fluoro-7H-pyrrolo[2,3-d]pyrimidin-7-yl)-6-[(2-amino-3-fluoroquinolin-7-yl)methyl]-5-fluorohexahydro-3aH-cyclopenta[b]furan-3,3a-diol, 2,2,2-trifluoroethanol]"
9.22,,"Nc1nc2cc(C[C@@H]3CC[C@@]4(O)[C@@H]3O[C@@H](n3cc(F)c5c(N)ncnc53)[C@@H]4O)ccc2cc1F [Example 59, (2R,3R,3aS,6S,6aR)-6-((2-amino-3-fluoroquinolin-7-yl)methyl)-2-(4-amino-5-fluoro-7H-pyrrolo[2,3-d]pyrimidin-7-yl)hexahydro-3aH-cyclopenta[b]furan-3,3a-diol]"
